According to patent publication US6706740B2, “Fungicidal heterocyclic aromatic amides and their compositions, methods of use and preparation” (Dow AgroSciences LLC, priority 1999, dated 2004):

system: Magnaporthe grisea (Pyricularia oryzae—PYRIOR); test: microbe, parasite or virus in culture; type: cell-based; details: Pyricularia oryzae, read-out: PYRIOR in vitro Growth Inhibition

**Q.** Which inhibition at 25 ppm does the source give for `COc1ccnc(C(=O)N[C@H]2COC(=O)[C@H](Oc3ccccc3)[C@@H](OC(=O)C(C)C)[C@H](C)OC2=O)c1O` [Compound 403] here?
**A.** Its inhibition at 25 ppm is less than 80%.

**Q.** With `O=C(Oc1cccnc1C(=O)NC1CCC(OC(=O)c2ccccc2)CC1)c1ccccc1` (stereo not drawn) [Compound 567] as the compound, how does the inhibition at 25 ppm read?
**A.** Its inhibition at 25 ppm is less than 80%.

**Q.** Which inhibition at 25 ppm does the source give for `O=C(NC1CCC(O)CC1)c1ncccc1O` (stereo not drawn) [Compound 208] here?
**A.** The inhibition at 25 ppm was less than 80%.

system: Rhizoctonia solani (RHIZSO); test: microbe, parasite or virus in culture; type: cell-based; details: Rhizoctonia solani, read-out: RHIZSO in vitro Growth Inhibition

**Q.** For `COc1ccnc(C(=O)N[C@H]2COC(=O)[C@H](Oc3ccccc3)[C@@H](OC(=O)C(C)C)[C@H](C)OC2=O)c1O` [Compound 403], which inhibition at 25 ppm is on record?
**A.** The inhibition at 25 ppm was less than 80%.

**Q.** Which inhibition at 25 ppm does the source give for `O=C(Oc1cccnc1C(=O)NC1CCC(OC(=O)c2ccccc2)CC1)c1ccccc1` (stereo not drawn) [Compound 567] here?
**A.** Its inhibition at 25 ppm is less than 80%.

**Q.** Which inhibition at 25 ppm does the source give for `O=C(NC1CCC(O)CC1)c1ncccc1O` (stereo not drawn) [Compound 208] here?
**A.** Its inhibition at 25 ppm is less than 80%.

system: Mycosphaerella graminicola (Septoria tritici—SEPTTR); test: In vitro fungal growth inhibition, Mycosphaerella graminicola (SEPTTR); type: cell-based; details: Zymoseptoria tritici; 25 ppm in growth medium; read-out: SEPTTR in vitro Growth Inhibition

**Q.** With `COc1ccnc(C(=O)N[C@H]2COC(=O)[C@H](Oc3ccccc3)[C@@H](OC(=O)C(C)C)[C@H](C)OC2=O)c1O` [Compound 403] as the compound, how does the inhibition at 25 ppm read?
**A.** The inhibition at 25 ppm was greater than 80%.

**Q.** With `O=C(NC1CCC(O)CC1)c1ncccc1O` (stereo not drawn) [Compound 208] as the compound, how does the inhibition at 25 ppm read?
**A.** Its inhibition at 25 ppm is less than 80%.

same assay, conditions: Zymoseptoria tritici; 25 ppm in the growth medium; read-out: SEPTTR in vitro Growth Inhibition

**Q.** For `O=C(Oc1cccnc1C(=O)NC1CCC(OC(=O)c2ccccc2)CC1)c1ccccc1` (stereo not drawn) [Compound 567], which inhibition at 25 ppm is on record?
**A.** Its inhibition at 25 ppm is less than 80%.

system: Stagonospora nodorum (Leptosphaeria nodorum—LEPTNO); test: In vitro fungal growth inhibition, Stagonospora nodorum (LEPTNO); type: cell-based; details: Leptosphaeria; 25 ppm in growth medium; read-out: LEPTNO in vitro Growth Inhibition

**Q.** Which inhibition at 25 ppm does the source give for `COc1ccnc(C(=O)N[C@H]2COC(=O)[C@H](Oc3ccccc3)[C@@H](OC(=O)C(C)C)[C@H](C)OC2=O)c1O` [Compound 403] here?
**A.** The inhibition at 25 ppm was greater than 80%.

**Q.** For `O=C(NC1CCC(O)CC1)c1ncccc1O` (stereo not drawn) [Compound 208], which inhibition at 25 ppm is on record?
**A.** Its inhibition at 25 ppm is less than 80%.

same assay, conditions: Leptosphaeria; 25 ppm in the growth medium; read-out: LEPTNO in vitro Growth Inhibition

**Q.** Which inhibition at 25 ppm does the source give for `O=C(Oc1cccnc1C(=O)NC1CCC(OC(=O)c2ccccc2)CC1)c1ccccc1` (stereo not drawn) [Compound 567] here?
**A.** The inhibition at 25 ppm was less than 80%.

system: Ustilago maydis (USTIMA); test: microbe, parasite or virus in culture; type: cell-based; details: Mycosarcoma maydis, read-out: USTIMA in vitro Growth Inhibition

**Q.** Which inhibition at 25 ppm does the source give for `COc1ccnc(C(=O)N[C@H]2COC(=O)[C@H](Oc3ccccc3)[C@@H](OC(=O)C(C)C)[C@H](C)OC2=O)c1O` [Compound 403] here?
**A.** The inhibition at 25 ppm was less than 80%.

**Q.** For `O=C(Oc1cccnc1C(=O)NC1CCC(OC(=O)c2ccccc2)CC1)c1ccccc1` (stereo not drawn) [Compound 567], which inhibition at 25 ppm is on record?
**A.** Its inhibition at 25 ppm is less than 80%.

**Q.** For `O=C(NC1CCC(O)CC1)c1ncccc1O` (stereo not drawn) [Compound 208], which inhibition at 25 ppm is on record?
**A.** Its inhibition at 25 ppm is less than 80%.

system: Phytophthora infestans (PHYTIN); test: microbe, parasite or virus in culture; type: cell-based; details: Phytophthora infestans, read-out: PHYTIN in vitro Growth Inhibition

**Q.** With `COc1ccnc(C(=O)N[C@H]2COC(=O)[C@H](Oc3ccccc3)[C@@H](OC(=O)C(C)C)[C@H](C)OC2=O)c1O` [Compound 403] as the compound, how does the inhibition at 25 ppm read?
**A.** The inhibition at 25 ppm was less than 80%.

**Q.** With `O=C(Oc1cccnc1C(=O)NC1CCC(OC(=O)c2ccccc2)CC1)c1ccccc1` (stereo not drawn) [Compound 567] as the compound, how does the inhibition at 25 ppm read?
**A.** The inhibition at 25 ppm was less than 80%.

**Q.** With `O=C(NC1CCC(O)CC1)c1ncccc1O` (stereo not drawn) [Compound 208] as the compound, how does the inhibition at 25 ppm read?
**A.** The inhibition at 25 ppm was less than 80%.

system: Phytophthora infestans—PHYTIN; test: whole plant or invertebrate; type: in vivo; details: Phytophthora, in Solanum lycopersicum, 24 h, read-out: PHYTIN in vivo 1 Day Protectant

**Q.** With `COc1ccnc(C(=O)N[C@H]2COC(=O)[C@H](Oc3ccccc3)[C@@H](OC(=O)C(C)C)[C@H](C)OC2=O)c1O` [Compound 403] as the compound, how does the pest or weed control at 100 ppm read?
**A.** Its pest or weed control at 100 ppm is less than 25%.

**Q.** With `O=C(NC1CCC(O)CC1)c1ncccc1O` (stereo not drawn) [Compound 208] as the compound, how does the pest or weed control at 100 ppm read?
**A.** Its pest or weed control at 100 ppm is 25 to 74%.

same assay, conditions: tomato plants sprayed at 100 ppm, inoculated after 24 hours; control of fungal infection vs untreated plants

**Q.** With `O=C(Oc1cccnc1C(=O)NC1CCC(OC(=O)c2ccccc2)CC1)c1ccccc1` (stereo not drawn) [Compound 567] as the compound, how does the “PHYTIN in vivo 1 Day Protectant” value read?
**A.** The value was “+ +”.

system: Puccinia recondita—PUCCRT; test: Brown Rust of Wheat, in vivo whole plant, 24 Hour Protectant; details: Puccinia; 100 ppm spray, 24 hour protectant, wheat; control of fungal infection vs untreated plants; read-out: PUCCRT in vivo 1 Day Protectant

**Q.** For `O=C(NC1CCC(O)CC1)c1ncccc1O` (stereo not drawn) [Compound 208], which pest or weed control at 100 ppm is on record?
**A.** The pest or weed control at 100 ppm was 25 to 74%.

same assay, conditions: Puccinia; 100 ppm spray, wheat, 24 hour protectant; control of fungal infection vs untreated plants; read-out: PUCCRT in vivo 1 Day Protectant

**Q.** With `COc1ccnc(C(=O)N[C@H]2COC(=O)[C@H](Oc3ccccc3)[C@@H](OC(=O)C(C)C)[C@H](C)OC2=O)c1O` [Compound 403] as the compound, how does the pest or weed control at 100 ppm read?
**A.** The pest or weed control at 100 ppm was 25 to 74%.

same assay, conditions: Puccinia; wheat plants sprayed at 100 ppm, inoculated after 24 hours; control of fungal infection vs untreated plants; read-out: PUCCRT in vivo 1 Day Protectant

**Q.** For `O=C(Oc1cccnc1C(=O)NC1CCC(OC(=O)c2ccccc2)CC1)c1ccccc1` (stereo not drawn) [Compound 567], which pest or weed control at 100 ppm is on record?
**A.** The pest or weed control at 100 ppm was less than 25%.

system: Erysiphe graminis—ERYSGT; test: Powdery Mildew of Wheat, in vivo whole plant, 24 Hour Protectant; details: Erysiphe; 100 ppm spray, 24 hour protectant, wheat; control of fungal infection vs untreated plants; read-out: ERYSGT in vivo 1 Day Protectant

**Q.** Which pest or weed control at 100 ppm does the source give for `O=C(NC1CCC(O)CC1)c1ncccc1O` (stereo not drawn) [Compound 208] here?
**A.** The pest or weed control at 100 ppm was less than 25%.

same assay, conditions: Erysiphe; 100 ppm spray, wheat, 24 hour protectant; control of fungal infection vs untreated plants; read-out: ERYSGT in vivo 1 Day Protectant

**Q.** For `COc1ccnc(C(=O)N[C@H]2COC(=O)[C@H](Oc3ccccc3)[C@@H](OC(=O)C(C)C)[C@H](C)OC2=O)c1O` [Compound 403], which pest or weed control at 100 ppm is on record?
**A.** Its pest or weed control at 100 ppm is less than 25%.

same assay, conditions: Erysiphe; wheat plants sprayed at 100 ppm, inoculated after 24 hours; control of fungal infection vs untreated plants; read-out: ERYSGT in vivo 1 Day Protectant

**Q.** For `O=C(Oc1cccnc1C(=O)NC1CCC(OC(=O)c2ccccc2)CC1)c1ccccc1` (stereo not drawn) [Compound 567], which pest or weed control at 100 ppm is on record?
**A.** Its pest or weed control at 100 ppm is less than 25%.

system: Septoria tritici—SEPTTR; test: Leaf Blotch of Wheat, in vivo whole plant, 24 Hour Protectant; details: Zymoseptoria tritici, 24 h, 100 ppm spray, 24 hour protectant, wheat; control of fungal infection vs untreated plants; read-out: SEPTTR in vivo 1 Day Protectant

**Q.** With `O=C(NC1CCC(O)CC1)c1ncccc1O` (stereo not drawn) [Compound 208] as the compound, how does the pest or weed control at 100 ppm read?
**A.** Its pest or weed control at 100 ppm is less than 25%.

same assay, conditions: Zymoseptoria tritici, 24 h, 100 ppm spray, wheat, 24 hour protectant; control of fungal infection vs untreated plants; read-out: SEPTTR in vivo 1 Day Protectant

**Q.** For `COc1ccnc(C(=O)N[C@H]2COC(=O)[C@H](Oc3ccccc3)[C@@H](OC(=O)C(C)C)[C@H](C)OC2=O)c1O` [Compound 403], which pest or weed control at 100 ppm is on record?
**A.** The pest or weed control at 100 ppm was 25 to 74%.

same assay, conditions: Zymoseptoria tritici, 24 h, wheat plants sprayed at 100 ppm, inoculated after 24 hours; control of fungal infection vs untreated plants; read-out: SEPTTR in vivo 1 Day Protectant

**Q.** With `O=C(Oc1cccnc1C(=O)NC1CCC(OC(=O)c2ccccc2)CC1)c1ccccc1` (stereo not drawn) [Compound 567] as the compound, how does the pest or weed control at 100 ppm read?
**A.** The pest or weed control at 100 ppm was 25 to 74%.

system: Leptosphaeria nodorum—LEPTNO; test: Glume Blotch of Wheat, in vivo whole plant, 24 Hour Protectant; details: 100 ppm spray, wheat, 24 hour protectant; control of fungal infection vs untreated plants

**Q.** Which “LEPTNO in vivo 1 Day Protectant” value does the source give for `COc1ccnc(C(=O)N[C@H]2COC(=O)[C@H](Oc3ccccc3)[C@@H](OC(=O)C(C)C)[C@H](C)OC2=O)c1O` [Compound 403] here?
**A.** Its value is “+ +”.

same assay, conditions: Leptosphaeria; 100 ppm spray, 24 hour protectant, wheat; control of fungal infection vs untreated plants; read-out: LEPTNO in vivo 1 Day Protectant

**Q.** Which pest or weed control at 100 ppm does the source give for `O=C(NC1CCC(O)CC1)c1ncccc1O` (stereo not drawn) [Compound 208] here?
**A.** Its pest or weed control at 100 ppm is less than 25%.

same assay, conditions: Leptosphaeria; wheat plants sprayed at 100 ppm, inoculated after 24 hours; control of fungal infection vs untreated plants; read-out: LEPTNO in vivo 1 Day Protectant

**Q.** Which pest or weed control at 100 ppm does the source give for `O=C(Oc1cccnc1C(=O)NC1CCC(OC(=O)c2ccccc2)CC1)c1ccccc1` (stereo not drawn) [Compound 567] here?
**A.** The pest or weed control at 100 ppm was 25 to 74%.

system: not given; test: not given; details: not given

**Q.** For `COc1ccnc(C(=O)N[C@H]2COC(=O)[C@H](Oc3ccccc3)[C@@H](OC(=O)C(C)C)[C@H](C)OC2=O)c1O` [Compound 403], which melting point is on record?
**A.** Its melting point is 194 to 195 °C.

**Q.** For `O=C(Oc1cccnc1C(=O)NC1CCC(OC(=O)c2ccccc2)CC1)c1ccccc1` (stereo not drawn) [Compound 567], which melting point is on record?
**A.** Its melting point is 174 to 177 °C.

**Q.** Which melting point does the source give for `O=C(NC1CCC(O)CC1)c1ncccc1O` (stereo not drawn) [Compound 208] here?
**A.** Its melting point is 112 to 115 °C.
